This note sets out measurements from patent US8048455B2, “Treatment of cancer and inflammatory disorder” (Academia Sinica, priority 2006, dated 2011).

Read-outs that look alike come from different tables or passages of the source.

In experiment [1] the test system is COX-2 and nitrotyrosine-containing proteins. Put plainly: Immunohistochemical study of COX-2 and nitrotyrosine protein expression in mouse skin. In kind it is in vivo, Female ICR mice. How it is done:
Female ICR mice were topically treated on their shaven backs with vehicle (acetone), TPA, or SNP for 4 hours, or were treated with compound (dLGG, celecoxib, or PTIO) topically for 30 minutes before treating with TPA or SNP for 4 hours and finally killed by cervical dislocation. The formalin-fixed, paraffin-embedded skin tissues were stained according to Chiang et al. Br J Pharmacol 2005; 146:352-63.
Immunohistochemical study was carried out to examine the ability of dLGG to inhibit TPA induction of COX-2 and nitration of proteins in vivo using immunohistochemical analysis in a mouse skin system. Dorsal skin of female ICR mice was treated topically with acetone (vehicle control) or TPA (10 nmol) for 4 hours or with various concentrations of dLGG or celecoxib for 30 minutes before TPA treatment for 4 hours. Immunohistograms were taken with an Olympus DP-70 camera on a Nikon ECLIPSE E800 microscope.

A further experiment relates to NO. Put plainly: Plasma nitrite concentration in SNP-treated mice. It counts as in vivo, Female ICR mice. The following applies: topical pretreatment 30 min before SNP; dLGG 10 mg/site, PTIO 3.5 mg/site. How it is done: Female ICR mice were topically treated on their shaven back area of a 2-cm diameter (3.14 cm^2/site/mouse) with vehicle control (acetone), SNP (positive control), or with dLGG or PTIO for 30 minutes before SNP application. Mouse plasma samples were subjected to determine the nitrite content followed a published method (Moshage et al. Clin Chem 1995; 41:892-6).
To examine the capability of dLGG to scavenge NO in vivo, the plasma NO concentration in SNP-insulted mice was determined with or without pretreatment with dLGG. Female ICR mice were transdermally treated with 200 μL acetone (vehicle control) or SNP (5.96 mg/site) only for 15 minutes, or pre-treated with dLGG (10 mg/site) or PTIO (3.5 mg/site) for 30 minutes before SNP treatment.

Another experiment has as its system IκBα. Put plainly: IκBα phosphorylation and degradation in LPS-stimulated RAW 264.7 cells (Western blot). In kind it is cell-based, murine. As to conditions: dLGG 1 h, LPS 1 μg/mL 30 min. The procedure:
Total cellular proteins and the specific cytosolic and nuclear proteins were prepared using methods described in Chiang et al. Protein content was measured by the Bradford method (Bio-Rad). Protein was resolved by 5-20% gradient SDS-PAGE and subjected to immunoblotting using enhanced chemiluminescence reagents (ECL, Amersham). Monoclonal antibodies against PARP (Transduction Laboratories, Lexington, Ky.), GA3PDH (Biogenesis, Poole, UK), α-tubulin (Oncogene Science, Cambridge, UK), COX-2 (Cayman Chemical), phospho-(Ser32)-IκBα, phospho-IKKα(Ser180)/IKKβ(Ser181) (New England Biolabs, Beverly, Mass.), iNOS, IκBα, IKKα/β or NF-κB p65 (RelA) (Santa Cruz Biotechnology, Santa Cruz, Calif.) were used.
Cells were treated with various concentrations of dLGG for 1 h followed by the addition of LPS (1 μg/mL) for 30 min. Western blots was then conducted using antibodies for IκBα or phospho-IκBα.

Experiment [2] concerns NO production in LPS-activated RAW 264.7 macrophages. Put plainly: LPS-induced NO production in RAW 264.7 macrophages (Griess reaction). As to conditions: Mus musculus, RAW264.7. In kind it is cell-based, murine. How it is done:
RAW 264.7 cells were treated with compound for 1 hour, and then incubated for 24 hours with or without LPS. Nitrite levels in cell culture medium were determined using the Griess reaction (Chiang et al. Br J Pharmacol 2005; 146:352-63; Schmidt et al. Determination of nitrite and nitrate by the Griess reaction. In: Feelisch M, Stamler J S, editors. Methods In Nitric Oxide Research. New York: John Wiley & Sons Inc.; 1996. p. 491-'7). Cell viability was examined using the MTT based assay (Scudiero et al. Cancer Res 1988; 48:4827-33).
RAW 264.7 macrophage cells were treated with or without various concentrations of CREa8 extract for 1 hour, then LPS (1 μg/ml) was added and incubated for 24 hours. […] NO in the culture medium was measured. Percentage of cell viability was also determined using MTT assay. The data represent 3 experiments and are expressed as mean±SD. […]
The inhibition of LPS-induced NO production by C. rabens extracts or purified dLGG was investigated in murine RAW 264.7 macrophages by determination of nitrite level (equivalent to NO level) in culture medium 24 hours after treatment. […] NO in the culture medium was measured using the Griess reagent. Survival of macrophages after treatment was measured using MTT assay and calculated by the following formula: viable cell number (%)=OD570 (treated cell culture)/0D570 (vehicle control)×100. […]

In another experiment the target is T1, COX-2 enzyme (Ovis aries, UniProt P79208).
T1 construct: purchased Cayman Chemical
T1 sequence (P79208 17-603): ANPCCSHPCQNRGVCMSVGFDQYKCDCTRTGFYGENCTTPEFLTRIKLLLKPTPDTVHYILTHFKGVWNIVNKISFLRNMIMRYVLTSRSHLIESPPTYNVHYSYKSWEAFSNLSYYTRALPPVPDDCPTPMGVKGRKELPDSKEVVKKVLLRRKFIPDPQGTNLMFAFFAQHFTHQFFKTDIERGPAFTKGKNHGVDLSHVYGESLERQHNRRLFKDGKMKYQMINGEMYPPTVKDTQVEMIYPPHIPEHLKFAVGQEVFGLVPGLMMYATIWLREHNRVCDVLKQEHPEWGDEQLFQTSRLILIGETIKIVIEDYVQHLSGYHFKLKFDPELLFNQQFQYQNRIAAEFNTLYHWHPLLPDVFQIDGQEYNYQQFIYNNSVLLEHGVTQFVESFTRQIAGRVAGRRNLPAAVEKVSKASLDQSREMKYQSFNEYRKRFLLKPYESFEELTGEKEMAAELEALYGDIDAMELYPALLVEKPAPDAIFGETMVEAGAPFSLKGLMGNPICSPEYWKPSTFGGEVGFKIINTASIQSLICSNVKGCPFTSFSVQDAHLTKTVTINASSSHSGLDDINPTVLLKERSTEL
Put plainly: Cyclooxygenase-2 activity assay (chemiluminescent COX inhibitor screening kit). As to conditions: COX-2 enzyme and substrates. It counts as biochemical. The procedure: COX-2 inhibition was measured with the chemiluminescent COX inhibitor screening assay kit (Cayman Chemical, Ann Arbor, Mich.).
The above-mentioned test compounds were incubated with COX-2 enzyme and substrates before measuring the COX-2 activity.

Turning to `CC/C=C\C/C=C\C/C=C\CCCCCCCC(=O)OC[C@H](CO[C@@H]1O[C@H](CO)[C@H](O)[C@H](O)[C@H]1O)OC(=O)CCCCCCC/C=C\C/C=C\C/C=C\CC` [dLGG, 1,2-di-O-α-linolenoyl-3-O-β-galactopyranosyl-sn-glycerol], the “Inhibitory effect on COX-2 protein expression and nitrotyrosine-containing proteins versus celecoxib 10 mg in 200 μL/site” value in experiment [1] (1 mg in 200 μL/site (6.46 mM)) was “comparable to that of celecoxib”. For the same molecule, the “TPA-induced increases of COX-2 and nitrotyrosine-containing proteins in epidermis” value in experiment [1] (topical 30 min before TPA 10 nmol 4 h) is reported as “significantly attenuated”. Moreover, the “Topical SNP-induced nitroprotein formation in mouse skin” value in experiment [1] (topical, SNP-treated) was “suppressed”. Besides, the “SNP-induced increase of nitrite plasma concentration” value in the experiment on NO is listed as “suppressed”. Further, the IκBα degradation entry in the experiment on IκBα is “prevented”. In the experiment on IκBα, the “LPS-induced phosphorylation of IκBα” value was “inhibited”. Also, the IC50 is approximately 14.7 µM in experiment [2] (RAW 264.7, LPS 1 μg/mL 24 h, read-out: 50% inhibitory concentration for LPS-induced NO production); approximately 11.4 µg/mL in experiment [2] (RAW 264.7, compound 1 h then LPS 1 μg/mL 24 h, read-out: IC50 for inhibiting LPS-induced NO production); 5.35 µM against COX-2 enzyme.
